{"source": "patent EP2918282A1", "about": "“Pharmaceutical composition for the treatment of virus diseases, such as flu” (OOO \"CytoNIR\", priority 2014, dated 2015)", "tested_on": "Grippevirus A/Vladivostok/2/09 (H1N1)", "assay": "Survival of mice infected with a lethal dose of influenza virus, peroral treatment for 5 days", "type": "in vivo, Mäuse", "conditions": "for To-des-fälle / Überleben-de Mäuse / MLD, Tage (mittlere Lebensdauer innerhalb der Beobachtungsfrist) / Sterblichkeit % / MLD-Erhöhung, Tage / Schutzkennzahl, %: Tamiflu 30 mg/kg; for MLD-Erhöhung, Tage / Schutzkennzahl, %: versus Placebo", "excerpt": "Die Wirksamkeit des Mittels wurde an einem Modell der Überlebensfähigkeit von angesteckten Versuchstieren geprüft. Die Versuchstiere wurden mit einer tödlichen Dosis des Grippevirus A/Vladivostok/2/09 (H1N1) angesteckt. Während der Forschung wurde das erfindungsgemäße Mittel 5 Tage lang peroral verabreicht.\nAls Versuchstiere wurden weiße männliche Auszucht-Mäuse mit einem Körpergewicht von 16 - 18 g aus der Aufzuchtstation Rappolovo der Russischen Akademie der medizinischen Wissenschaften verwendet. Vor der Prüfung wurden die Versuchstiere einer Quarantäne in einem Vivarium im Laufe einer Woche unterzogen. Die Versuchstiere wurden unter genormten Klima-Bedingungen mit ausgewogener Fütterung gehalten. Jede Gruppe enthielt je 30 Versuchstiere.\nUm eine versuchsmäßige Grippe-Infektion zu simulieren, wurde ein bestimmter Virusstamm eingesetzt. Die Versuchstiere wurden mit dem A/Vladivostok/2/09 (H1N1)-Virus in Mengen von 1 und 10 DL50 intranasal angesteckt.\nDie Behandlung der angesteckten Mäuse wurde 24 Stunden nach der Ansteckung begonnen. Die Präparate wurden intragastrisch mittels einer Sonde verabreicht. Bei diesen Präparaten handelte es sich um eine Lösung in einer physiologischen Kochsalzlösung. Die Dosis des Arzneimittels wurde pro ein kg des Körpergewichts des Tieres berechnet. Die Behandlung wurde im Laufe von 5 Tagen vorgenommen. Die Wirksamkeit des Mittels wurde anhand der Überlebensraten der Tiere am 21. Tag nach der Ansteckung beurteilt.\nDie erste Gruppe der Versuchstiere erhielt eine Lösung von Glutamyltryptophan und Natriumsalz der Glycyrrhizinsäure (nachfolgend GTGS); die zweite Gruppe der Tiere erhielt ein Präparat Tamiflu (Handelsnahme des Präparats Oseltamyvir) in der Dosis von 30 mg/kg; die dritte Gruppe der Tiere erhielt eine physiologische Kochsalzlösung (Placebo).", "key": {"[1]": {"conditions": "Virus-Dosis 1 (DL50), 15 animals per group, peroral day 1 to 5 after infection"}, "[2]": {"conditions": "Virus-Dosis 1 (DL50), peroral day 1 to 5 after infection"}, "[3]": {"conditions": "Virus-Dosis 10 (DL50), 15 animals per group, peroral day 1 to 5 after infection"}, "[4]": {"conditions": "Virus-Dosis 10 (DL50), peroral day 1 to 5 after infection"}, "[5]": {"conditions": "Virus-Dosis Gesamtdosis (both virus doses pooled), 30 animals, peroral day 1 to 5 after infection"}, "[6]": {"conditions": "Virus-Dosis Gesamtdosis (both virus doses pooled), peroral day 1 to 5 after infection"}, "[7]": {"conditions": "Virus-Dosis Gesamtdosis (both virus doses pooled)"}}}
{"compound": "CCOC(=O)C1=C[C@@H](OC(CC)CC)[C@H](NC(C)=O)[C@@H](N)C1", "note": "[Tamiflu, Oseltamyvir]", "values": [{"measurement": "To-des-fälle", "setting": "[1]", "value": 6}, {"measurement": "Überleben-de Mäuse", "setting": "[1]", "value": 9}, {"measurement": "MLD, Tage (mittlere Lebensdauer innerhalb der Beobachtungsfrist)", "setting": "[2]", "value": "11,7 Tage"}, {"measurement": "Sterblichkeit %", "setting": "[2]", "value": "40,0%"}, {"measurement": "MLD-Erhöhung, Tage", "setting": "[2]", "value": "1,1 Tage"}, {"measurement": "Schutzkennzahl, %", "setting": "[2]", "value": "25,0%"}, {"measurement": "To-des-fälle", "setting": "[3]", "value": 12}, {"measurement": "Überleben-de Mäuse", "setting": "[3]", "value": 3}, {"measurement": "MLD, Tage (mittlere Lebensdauer innerhalb der Beobachtungsfrist)", "setting": "[4]", "value": "9,0 Tage"}, {"measurement": "Sterblichkeit %", "setting": "[4]", "value": "80,0%"}, {"measurement": "MLD-Erhöhung, Tage", "setting": "[4]", "value": "1,9 Tage"}, {"measurement": "Schutzkennzahl, %", "setting": "[4]", "value": "14,3%"}, {"measurement": "To-des-fälle", "setting": "[5]", "value": 18}, {"measurement": "Überleben-de Mäuse", "setting": "[5]", "value": 12}, {"measurement": "MLD, Tage (mittlere Lebensdauer innerhalb der Beobachtungsfrist)", "setting": "[6]", "value": "10,4 Tage"}, {"measurement": "Sterblichkeit %", "setting": "[6]", "value": "60,0%"}, {"measurement": "MLD-Erhöhung, Tage", "setting": "[7]", "value": "1,5 Tage"}, {"measurement": "Schutzkennzahl, %", "setting": "[7]", "value": "18,2%"}, {"measurement": "Todesfälle", "setting": "virus dose 10 DL50, 30 mg/kg", "value": 80, "unit": "%"}]}
